“Also recorded” adds a separate entry of the source.
What was measured:
[1] = tested on: panel of 24 biotinylated chemokines; assay: Phage-display screen of HD2 NNK saturation mutagenesis library; assay type: binding, human; conditions: HD2 saturation mutants; chemokines on streptavidin beads; UniProt entry names
Source text: (§1) FIG. 7. Exemplar results from phage display screens using saturation mutagenesis. A phage-display library was constructed using the HD2 sequence, replacing each residue encoding codon with the degenerate sequence NNK. The 16 degenerate sequences (which also encoded the parental HD2 sequence) were pooled and cloned into display phage. […] Exemplar peptides were selected such that log 2 E for at least one chemokine was greater than 5, and log 2 E for binding to control (CO5, was less than zero). […] The fold enrichment of parental HD2 is also indicated.
as §1, with “A” for “FIG. 7. Exemplar results from phage display screens using saturation mutagenesis. A”
A molecular level understanding of binding mechanism is needed for development of peptides as therapeutics and is usually obtained from structural analyses. As HD2 binds many chemokines this becomes a challenging task, and we explored if we could elucidate this using phage display mutagenesis. The role of each residue in HD2 for binding was examined in phage-display. A library of HD2 mutations that had NNK substituted at each residue and performed phage-display selection against a panel of 24 biotinylated chemokines, in parallel, as described in Example 7. This strategy allowed us to evaluate the impact not only of Ala substitutions, but also conservative, hydrophilic and hydrophobic substitutions, and compare with binding of parental HD2 which is also included in the library. Ala substitution removes side-chains beyond the β-carbon and can be used to infer the role of side-chain functional groups without affecting conformational flexibility of the backbone. […] These residues are within the two motifs identified previously. Other notable residues identified were Y8 and P10. We next judged the impact of Ala mutation by calculating the change in log 2 E (Δlog 2 E) between the mutant and parental HD2. A positive value of Δlog 2 E indicates increased binding, and a negative value decreased binding compared to parental HD2. […] As may be seen, the log 2 E for the parental HD2 was ~0 in these analyses indicating lack of enrichment.
Oligonucleotide pools were amplified using primers: oligo_fwd: 5′-[…] and oligo_rev2: 5′-tcgtcaccctcggcgcctcctcoggatcctccacc. Oligonucleotide PCR products were cloned into plasmid prSTOP4Nsi using NEB Builder HiFi Assembly following instructions of the manufacturer. The vector pool was used to transform electrocompetent Invitrogen ElectroMAX™ DH5α-E™ cells. Plasmid DNA was harvested by MaxiPrep (GeneJet Plasmid Maxiprep Kit) and was transformed into SS320 phage display electrocompetent cells (Lucigen), following the manufacturer's protocol, resuspended in 950 μL recovery media for each electroporation, transferred to 50 mL Falcon tubes, 100 μL 1011 CFU/mL M13KO7 helper phage (NEB) added and shaken at 37° C., 220 RPM for 1 h. 1 mL recovery culture was added to 2YT medium containing +50 ug/mL carbenicillin and 25 ug/mL kanamycin, and grown overnight at 37C, 220 rpm. Phage was precipitated from the culture supernatant by adding 22.5 mL of supernatant to 4.5 mL 20% PEG 8000/2.5 M NaCl, incubating on ice for 30 min, and centrifuging at 10,000 RPM, 4° C. for 10 min, and resuspending phage in 1 ml of PBT, followed by centrifugation at 13000 RPM, 4° C., for 10 min. […]

CCL3 = molecular target: T1, CCL3 (Homo sapiens, UniProt P10147); assay: CCL3-induced THP-1 cell migration, transwell assay; assay type: cell-based; conditions: HD2 mutant peptides 10 μM, chemokine at EC80
T1 construct: purchased Peprotech
T1 sequence (P10147 24-92): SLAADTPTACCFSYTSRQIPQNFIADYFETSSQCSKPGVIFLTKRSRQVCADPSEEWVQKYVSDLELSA
Description: FIG. 2. […] BK1.2 is described in (Darlot, 2020). […] Chemokines used are indicated by the name, followed in parenthesis by the supplier code (P in supplier code indicates Peprotech). […] All experiments were performed at EC80 doses of indicated chemokine. Data are shown as box-whisker plots of three technical and three biological replicates. Statistically significant differences (compared to control, indicated by #), using Dunnett's test with correction for multiple comparisons, are indicated by asterisks: ****=P≤0.0001, ***=P≤0.001, **=P≤0.01, *=P≤0.05.
Briefly, cell migration assays use THP1 cells (human monocyte) and primary human buffy coat white cells (consisting of neutrophil granulocytes, monocytes, and lymphocytes), and activated T-cells. […] Assays are performed in 96-well Boyden chambers, and migrated cells counted and characterized using and ATTUNE Flow Cytometer as described. […]
The J:CXCR1 cell line was generated by transfecting Jurkat cells by electroporation with PvuI-linearized plasmid D1398 and selecting with blasticidin (Sigma-Aldrich, Cat #203350, 5 g/mL). […] Cell counts were determined by Attune NxT Flow Cytometer Plate Reader (ThermoFisher), based on cell size parameters FSC-H/SSC-H. Experiments were performed in 3 technical and 3 biological replicates. […] Statistical significances between control experimental groups was evaluated using Dunnett's test. […]

Sequence: EEDDYTAYAPLWCYFT [HD2_W12]
- Chemokines Bound log2E 1-5 [1]: CCL1, CCL15, CCL17, CCL18,; also recorded: CCL19, CCL20, CCL22, CCL25,; also recorded: CCL28, CCL4, X3CL1, SDF1,; also recorded: CXL14
- Chemokines Bound log2E > 5 [1]: CCL3
- chemotaxis compared with the parental HD2 peptide (CCL3): significant reduction in chemotaxis
